The structures appear in SMILES notation. Where only a bound is given, the exact number is not on record here.

Results on 19 compounds are retold here after ChEMBL document CHEMBL1134695, “Synthesis and evaluation of novel quinolinones as HIV-1 reverse transcriptase inhibitors” (Bioorg Med Chem Lett, 2001).

Assay [1] relates to Human immunodeficiency virus 1. Kind of assay: Antiviral activity against HIV-1 using antiinfectivity assay. The assay is classed as functional, organism-based.
Assay [2] addresses Human immunodeficiency virus type 1 reverse transcriptase (Human immunodeficiency virus 1, UniProt Q72547). Kind of assay: Inhibition of HIV-1 reverse transcriptase.
The subject of assay [3] is Human immunodeficiency virus type 1 reverse transcriptase (Human immunodeficiency virus 1), Q72547 [K103N].
Assay [4] relates to Human immunodeficiency virus type 1 reverse transcriptase (Human immunodeficiency virus 1), Q72547 [UNDEFINED MUTATION].
Assay [5] addresses Human immunodeficiency virus type 1 reverse transcriptase (Human immunodeficiency virus 1) (UniProt Q72547).

Usually IC90 stands for the point of the concentration-response curve where the effect stands at 90%. The IC50 is the midpoint of a concentration-inhibition curve. Take `O=C1Nc2ccc(Cl)cc2[C@@](C#CC2CC2)(C(F)(F)F)[C@H]1OCc1ccc(F)cc1`: in assay [1], it took 112 nM to reach the 90% level (IC90). In assay [2], the IC50 was found to be 899 nM.
`O=C1Nc2ccc(Cl)cc2[C@@](C#CC2CC2)(C(F)(F)F)[C@H]1OCc1ccccc1F` displayed an IC90 in assay [1] of 140 nM. The IC50 in assay [2] was 1300 nM.
The matching figures for `O=C1Nc2ccc(Cl)cc2[C@@](C#CC2CC2)(C(F)(F)F)[C@H]1OCc1ccccc1`: 71 nM and 440 nM.
With `Nc1ccc(CO[C@H]2C(=O)Nc3ccc(Cl)cc3[C@@]2(C#CC2CC2)C(F)(F)F)cc1`, the IC90 in assay [3] came to 1080 nM; in assay [1] it was 21 nM; in assay [5], 49 nM. Further, inhibition in assay [2] was half-maximal at 412 nM (IC50). The C90 in assay [4] stood at 3.85 µM.
`O=C1Nc2ccc(Cl)cc2[C@@](C#CC2CC2)(C(F)(F)F)[C@H]1OCc1ccccn1` registered an IC90 in assay [1] of 140 nM. Moreover, in assay [2], the IC50 was 1570 nM.
The matching figures for `O=C1Nc2ccc(Cl)cc2[C@@](C#CC2CC2)(C(F)(F)F)[C@H]1OCc1cccnc1`: 20 nM and 438 nM.
The matching figures for `COC(=O)N[C@H]1C(=O)Nc2ccc(Cl)cc2[C@@]1(C#CC1CC1)C(F)(F)F`: 212 nM and more than 2000 nM.
The matching figures for `O=C1Nc2ccc(Cl)cc2[C@@](C#CC2CC2)(C(F)(F)F)[C@H]1OCC1CC1`: 130 nM and 1430 nM.
`O=C1Nc2ccc(Cl)cc2[C@@](C#CC2CC2)(C(F)(F)F)[C@H]1O`: in assay [1], the IC90 stood at 637 nM. Further, the IC50 in assay [2] was more than 2000 nM.
For `O=C1C[C@](C#CC2CC2)(C(F)(F)F)c2cc(Cl)ccc2N1`, the IC90 came out at 1770 nM in assay [3], 14 nM in assay [1] and 992 nM in assay [5]. Also, the IC50 in assay [2] amounted to 130 nM.
As for `CC(=O)N[C@H]1C(=O)Nc2ccc(Cl)cc2[C@@]1(C#CC1CC1)C(F)(F)F`, in assay [1], the IC90 is 917 nM. In addition, the IC50 in assay [2] was more than 2000 nM.
The matching figures for `CCCO[C@H]1C(=O)Nc2ccc(Cl)cc2[C@@]1(C#CC1CC1)C(F)(F)F`: 62 nM and 1050 nM.
In the case of `Nc1ccc(CO[C@H]2C(=O)Nc3ccc(Cl)cc3[C@@]2(C#CC2CC2)C(F)(F)F)cc1F`, the IC90 in assay [1] was 26 nM. For the same compound, in assay [2], half-maximal inhibition (IC50) was put at 241 nM.
The matching figures for `Nc1cccc(CO[C@H]2C(=O)Nc3ccc(Cl)cc3[C@@]2(C#CC2CC2)C(F)(F)F)c1`: 138 nM and 1460 nM.
In assay [1], `O=C1Nc2ccc(Cl)cc2[C@@](C#CC2CC2)(C(F)(F)F)[C@H]1OCc1cccc(F)c1` returned an IC90 of 201 nM. Also, in assay [2], half-maximal inhibition (IC50) was put at 1780 nM.
`O=C1Nc2ccc(Cl)cc2[C@@](C#CC2CC2)(C(F)(F)F)[C@H]1OCc1ccncc1`: the figures for the IC90 in assay [3], in assay [1] and in assay [5] were 50 nM, 19 nM and 23 nM, respectively. This compound also showed a 50% inhibitory concentration (IC50) in assay [2] of 129 nM. In addition, the C90 in assay [4] worked out at 4.83 µM.
For the compound `CC(C)=CCO[C@H]1C(=O)Nc2ccc(Cl)cc2[C@@]1(C#CC1CC1)C(F)(F)F`, the IC90 in assay [1] is more than 1000 nM. This compound also gave an IC50 in assay [2] of more than 2000 nM.
The matching figures for `O=C1Nc2ccc(Cl)cc2[C@@](C#CC2CC2)(C(F)(F)F)[C@H]1NCc1ccccc1`: 218 nM and more than 2000 nM.
The matching figures for `Nc1ccccc1CO[C@H]1C(=O)Nc2ccc(Cl)cc2[C@@]1(C#CC1CC1)C(F)(F)F`: 115 nM and 1020 nM.
